Where “and” joins values, the source holds several entries; their conditions need not be identical. Equal entries are not always repeated. Where two headings read alike, the source gives them in different places.
What was measured:
prostaglandin e2 [1] = conditions: cited from earlier work; for change in serum levels of prostaglandin e2: niceritrol alone, Aspirin® added to niceritrol
prostaglandin e2 [2] = conditions: cited from earlier work; for effect on nicotine-initiated prostaglandin e2 production: cells treated with 100 mcM nicotine, NSAID 0.1 to 100 mcM; for prostaglandin e2 concentration: nicotine (100 mcM) pre-treated cells, highest NSAID concentration (log M=−4), absence of IL-18, basal 337 pM, digitised from published graph
prostaglandin e2 [3] = conditions: cited from earlier work; for prostaglandin e2 concentration: nicotine pre-treated cells, highest NSAID concentration (log M=−4), absence of IL-18, basal 0.35 nM, digitised from published graph; for effect on nicotine-induced PGE2 production: nicotine-treated cells
[4] = system: prostaglandin e2 like substance (PGe2-LS); conditions: cited from earlier work; for PGe2-LS release (M±SE): samples treated with indomethacin and the pyridine derivative, control group 0.54±0.06, n=5
[5] = system: radioimmunoassayed prostaglandin E (R-PGE); conditions: basal 21±10 pg/ml, cited from earlier work
[6] = system: radioimmunoassayed prostaglandin E (R-PGE); conditions: naproxen and nicotinic acid, basal 35.6±29.8, cited from earlier work
prostaglandin e2 [7] = assay: serum prostaglandin e2 levels in normal male volunteers after niceritrol and Aspirin® (Nozaki et al. 1987); format: in vivo, human; conditions: after administration of niceritrol and Aspirin®; basal 23.3±11.8 pg/ml
Source text: FIG. 3. is prostaglandin e2 section extracted by inventors from graph of FIG. 1. from publication “Increased compliance of niceritrol treatment by addition of Aspirin®: relationship between changes in prostaglandins and skin flushing.” (Nozaki, S. et al., 1987, Int J Clin Pharmacol Ther Toxicol, v 25, p: 643-7). Inventors marked on said figure extracted by inventors by using UN-SCAN-IT® basal (52.3, 33.6, 26.6, 21.2, 19.1, 18.1, 16.8, 16.0, 15.1, 13.9), and after niceritrol and Aspirin® administration (46.2, 16.6, 42.0, 44.1, 8.2, 11.4, 18.6, 9.9, 27.6, 6.2) concentration coordinates (pg/ml) of prostaglandin e2. […]
Inventors used UN-SCAN-IT® to obtain digital concentration data from prostaglandin e2 section of the graph from the FIG. 1. of the publication (FIG. 3.). The obtained by inventors serum basal (52.3, 33.6, 26.6, 21.2, 19.1, 18.1, 16.8, 16.0, 15.1, 13.9), and after niceritrol and Aspirin® administration (46.2, 16.6, 42.0, 44.1, 8.2, 11.4, 18.6, 9.9, 27.6, 6.2) prostaglandin e2 digital levels (pg/ml) were statistically analysed using paired t-test.

## CC(=O)Oc1ccccc1C(=O)O [Aspirin®]
Prostaglandin e2 [1]
  change in serum levels of prostaglandin e2: significantly decreased

## CS(=O)(=O)Nc1ccc([N+](=O)[O-])cc1OC1CCCCC1 [NS398]
Prostaglandin e2 [2]
  effect on nicotine-initiated prostaglandin e2 production: suppressed
  prostaglandin e2 concentration: 761 pM
Prostaglandin e2 [3]
  prostaglandin e2 concentration: 0.55 nM
  effect on nicotine-induced PGE2 production: inhibited

## OCc1cccnc1 [nicotinyl alcohol]
[4]
  PGe2-LS release (M±SE): 0.52 ± 0.06 ng/min

## COc1ccc2c(c1)c(CC(=O)O)c(C)n2C(=O)c1ccc(Cl)cc1 [indomethacin]
Prostaglandin e2 [2]
  effect on nicotine-initiated prostaglandin e2 production: suppressed
  prostaglandin e2 concentration: 768 pM
Prostaglandin e2 [3]
  prostaglandin e2 concentration: 0.50 nM
  effect on nicotine-induced PGE2 production: inhibited
[4]; indomethacin treatment
  effect on PGe2-LS release stimulated by pyridine derivatives: reduced

## CN(C)C(=O)Oc1ccc[n+](C)c1 [pyridostigmine bromide]
[4]
  PGe2-LS release (M±SE): 0.50 ± 0.06 ng/min

## O=C(O)c1cccnc1 [nicotinic acid]
[4]
  PGe2-LS release (M±SE): 0.63 ± 0.03 ng/min
[5]; infusion of nicotinic acid
  plasma concentration of R-PGE (M±SE): 49 ± 7 pg/mL
[5]; nicotinic acid infusion after naproxen treatment, n=3
  plasma concentration of R-PGE (M±SE): 8 ± 2 pg/mL
[6]; 5 min
  actual release of R-PGE (M±SE): 8.2±13.8 pg/100 ml tissue×min
[6]; 10 min
  actual release of R-PGE (M±SE): 10.6±16.6 pg/100 ml tissue×min
[6]; 20 min
  actual release of R-PGE (M±SE): 18.8±16.2 pg/100 ml tissue×min
[6]; 60 min
  actual release of R-PGE (M±SE): 15.1±13 pg/100 ml tissue×min

## Cc1ncc(CO)c(CO)c1O.Cl [pyridoxine hydrochloride]
[4]
  PGe2-LS release (M±SE): 0.44 ± 0.02 ng/min

## O=C(OCC(COC(=O)c1cccnc1)(COC(=O)c1cccnc1)COC(=O)c1cccnc1)c1cccnc1 [niceritrol]
Prostaglandin e2 [7]
  mean (M±SD) serum prostaglandin e2 concentration: 23.1 ± 15.8 pg/mL
Prostaglandin e2 [1]; after niceritrol and Aspirin® administration, 10 normal male volunteers, digitised from published graph
  serum prostaglandin e2 level, individual volunteers: 46.2 pg/mL and 6.2 pg/mL and 16.6 pg/mL and 42.0 pg/mL and 44.1 pg/mL and 8.2 pg/mL and 11.4 pg/mL and 18.6 pg/mL and 9.9 pg/mL and 27.6 pg/mL
Prostaglandin e2 [1]
  change in serum levels of prostaglandin e2: significantly increased
